In ChEMBL document CHEMBL4184118, “Carbazole-containing amides and ureas: Discovery of cryptochrome modulators as antihyperglycemic agents” (Bioorg Med Chem Lett, 2018):

Molecular target: T1, CRY2/PER2 (Homo sapiens, UniProt O15055+Q49AN0)
T1 sequence (O15055 whole entry): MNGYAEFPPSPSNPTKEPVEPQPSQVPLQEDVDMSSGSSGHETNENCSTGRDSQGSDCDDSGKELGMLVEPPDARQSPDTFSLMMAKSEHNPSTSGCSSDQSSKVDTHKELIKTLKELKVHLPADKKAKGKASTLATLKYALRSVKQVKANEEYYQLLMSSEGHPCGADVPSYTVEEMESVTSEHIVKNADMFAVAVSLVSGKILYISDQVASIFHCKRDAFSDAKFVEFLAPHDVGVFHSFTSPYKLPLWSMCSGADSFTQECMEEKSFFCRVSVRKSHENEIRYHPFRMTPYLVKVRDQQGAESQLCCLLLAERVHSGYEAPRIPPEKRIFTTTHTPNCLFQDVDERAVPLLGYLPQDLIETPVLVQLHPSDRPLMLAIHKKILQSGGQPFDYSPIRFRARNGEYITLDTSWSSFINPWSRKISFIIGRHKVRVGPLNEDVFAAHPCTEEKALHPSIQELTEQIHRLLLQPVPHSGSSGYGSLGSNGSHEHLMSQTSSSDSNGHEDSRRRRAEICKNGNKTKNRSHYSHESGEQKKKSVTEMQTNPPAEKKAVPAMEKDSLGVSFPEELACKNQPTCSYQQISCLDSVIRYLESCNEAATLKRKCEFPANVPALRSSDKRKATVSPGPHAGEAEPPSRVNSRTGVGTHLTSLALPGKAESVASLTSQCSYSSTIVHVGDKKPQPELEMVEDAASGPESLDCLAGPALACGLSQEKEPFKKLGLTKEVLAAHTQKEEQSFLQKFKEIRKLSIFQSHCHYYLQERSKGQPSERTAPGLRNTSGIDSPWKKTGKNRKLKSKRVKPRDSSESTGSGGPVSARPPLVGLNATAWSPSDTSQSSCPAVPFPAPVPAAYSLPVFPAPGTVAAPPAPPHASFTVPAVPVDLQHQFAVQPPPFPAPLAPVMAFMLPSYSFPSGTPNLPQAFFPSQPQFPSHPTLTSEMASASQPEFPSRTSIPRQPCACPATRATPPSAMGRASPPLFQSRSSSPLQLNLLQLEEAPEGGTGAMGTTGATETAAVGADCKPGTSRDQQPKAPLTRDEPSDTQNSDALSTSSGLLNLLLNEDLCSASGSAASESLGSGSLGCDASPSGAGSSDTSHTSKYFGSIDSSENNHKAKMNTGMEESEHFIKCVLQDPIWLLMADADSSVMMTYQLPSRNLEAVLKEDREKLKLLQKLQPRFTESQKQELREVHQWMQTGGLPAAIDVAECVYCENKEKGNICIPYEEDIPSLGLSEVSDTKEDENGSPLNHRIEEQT
T1 sequence (Q49AN0 whole entry): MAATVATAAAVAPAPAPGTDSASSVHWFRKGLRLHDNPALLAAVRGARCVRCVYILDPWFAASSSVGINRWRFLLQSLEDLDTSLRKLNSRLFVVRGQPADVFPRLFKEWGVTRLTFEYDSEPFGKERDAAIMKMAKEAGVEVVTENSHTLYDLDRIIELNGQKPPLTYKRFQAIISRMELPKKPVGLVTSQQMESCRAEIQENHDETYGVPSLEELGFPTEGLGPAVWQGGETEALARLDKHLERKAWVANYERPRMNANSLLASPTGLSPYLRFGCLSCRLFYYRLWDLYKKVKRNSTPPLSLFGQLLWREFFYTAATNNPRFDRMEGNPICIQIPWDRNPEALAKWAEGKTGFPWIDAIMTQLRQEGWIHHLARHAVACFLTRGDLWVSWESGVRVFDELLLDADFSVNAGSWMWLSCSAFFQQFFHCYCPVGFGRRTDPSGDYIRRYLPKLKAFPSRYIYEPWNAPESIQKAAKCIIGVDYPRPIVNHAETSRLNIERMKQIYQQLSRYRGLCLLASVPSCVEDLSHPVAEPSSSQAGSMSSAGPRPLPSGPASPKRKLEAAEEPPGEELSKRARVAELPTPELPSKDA
Experiment: Modulation activity at CRY2/PER2 in human U2OS cells harboring per2-dLuc assessed as activation of per2 activity measured every 100 mins for 5 days by luciferase reporter gene assay
Type: cell-based

O=C1C(c2ccccc2)CCN1CC(O)Cn1c2ccc(F)cc2c2cc(F)ccc21 (centres undefined)
EC50: 0.487 µM

COC1CNC(=O)N(CC(O)Cn2c3ccc(F)cc3c3cc(F)ccc32)C1 (centres undefined)
EC50: 1.12 µM

O=C1C(c2ccccc2)CCCN1CC(O)Cn1c2ccc(F)cc2c2cc(F)ccc21 (centres undefined)
EC50: 0.547 µM

O=C1C2CC2CN1CC(O)Cn1c2ccc(F)cc2c2cc(F)ccc21 (centres undefined)
EC50: 0.246 µM

CC1CCN(CC(O)Cn2c3ccc(F)cc3c3cc(F)ccc32)C(=O)N1 (centres undefined)
EC50: 0.417 µM

CC1CC(=O)N(CC(O)Cn2c3ccc(F)cc3c3cc(F)ccc32)C1 (centres undefined)
EC50: 1.03 µM

CC1CNC(=O)N1CC(O)Cn1c2ccc(F)cc2c2cc(F)ccc21 (centres undefined)
EC50: 1.19 µM

O=C1C(F)CCCN1CC(O)Cn1c2ccc(F)cc2c2cc(F)ccc21 (centres undefined)
EC50: 0.079 µM

CC1CCNC(=O)N1CC(O)Cn1c2ccc(F)cc2c2cc(F)ccc21 (centres undefined)
EC50: 0.742 µM

CC1CCCN(CC(O)Cn2c3ccc(F)cc3c3cc(F)ccc32)C1=O (centres undefined)
EC50: 1.15 µM

O=C1OCCCN1CC(O)Cn1c2ccc(F)cc2c2cc(F)ccc21 (centres undefined)
EC50: 4.98 µM

O=C1N(CC(O)Cn2c3ccc(F)cc3c3cc(F)ccc32)CCCN1c1ccccc1 (centres undefined)
EC50: 0.171 µM

CCC1CCCN(CC(O)Cn2c3ccc(F)cc3c3cc(F)ccc32)C1=O (centres undefined)
EC50: 0.332 µM

CS(=O)(=O)N(Cc1ccco1)CC(O)Cn1c2ccccc2c2ccccc21 (centres undefined)
EC50: 0.87 µM

CC(C)N1CCCN(CC(O)Cn2c3ccc(F)cc3c3cc(F)ccc32)C1=O (centres undefined)
EC50: 0.62 µM

COC1CC(=O)N(CC(O)Cn2c3ccc(F)cc3c3cc(F)ccc32)C1 (centres undefined)
EC50: 1.14 µM

O=C1N(CC(O)Cn2c3ccc(F)cc3c3cc(F)ccc32)CCC1(F)F (centres undefined)
EC50: 0.716 µM

O=C1C2CC2CCN1CC(O)Cn1c2ccc(F)cc2c2cc(F)ccc21 (centres undefined)
EC50: 0.167 µM

O=C1Cc2ccccc2CN1CC(O)Cn1c2ccc(F)cc2c2cc(F)ccc21 (centres undefined)
EC50: 15.2 µM

CC1(C)CCN(CC(O)Cn2c3ccc(F)cc3c3cc(F)ccc32)C1=O (centres undefined)
EC50: 0.164 µM

CC(C)C1CCN(CC(O)Cn2c3ccc(F)cc3c3cc(F)ccc32)C1=O (centres undefined)
EC50: 0.261 µM

O=C1OCCN1CC(O)Cn1c2ccc(F)cc2c2cc(F)ccc21 (centres undefined)
EC50: 9.77 µM

CN1CCN(CC(O)Cn2c3ccc(F)cc3c3cc(F)ccc32)C1=O (centres undefined)
EC50: 0.406 µM

O=C1c2ccccc2CN1CC(O)Cn1c2ccc(F)cc2c2cc(F)ccc21 (centres undefined)
EC50: 1.49 µM

O=C1Cc2ccccc2N1CC(O)Cn1c2ccc(F)cc2c2cc(F)ccc21 (centres undefined)
EC50: 3.73 µM

CC1(C)CCCN(CC(O)Cn2c3ccc(F)cc3c3cc(F)ccc32)C1=O (centres undefined)
EC50: 0.463 µM

O=C1CCc2ccccc2N1CC(O)Cn1c2ccc(F)cc2c2cc(F)ccc21 (centres undefined)
EC50: 7.43 µM

CC1CCC(=O)N1CC(O)Cn1c2ccc(F)cc2c2cc(F)ccc21 (centres undefined)
EC50: 0.199 µM

CC1CCCC(=O)N1CC(O)Cn1c2ccc(F)cc2c2cc(F)ccc21 (centres undefined)
EC50: 0.541 µM

CCN1CCCN(CC(O)Cn2c3ccc(F)cc3c3cc(F)ccc32)C1=O (centres undefined)
EC50: 0.497 µM

CC1CNC(=O)N(CC(O)Cn2c3ccc(F)cc3c3cc(F)ccc32)C1 (centres undefined)
EC50: 0.833 µM

O=C1c2ccccc2CCN1CC(O)Cn1c2ccc(F)cc2c2cc(F)ccc21 (centres undefined)
EC50: 1.36 µM

O=C1CCC2CC2N1CC(O)Cn1c2ccc(F)cc2c2cc(F)ccc21 (centres undefined)
EC50: 0.565 µM

O=C1N(CC(O)Cn2c3ccc(F)cc3c3cc(F)ccc32)CCCC1(F)F (centres undefined)
EC50: 0.194 µM

CC(C)C1CCCN(CC(O)Cn2c3ccc(F)cc3c3cc(F)ccc32)C1=O (centres undefined)
EC50: 0.079 µM

CC1CCN(CC(O)Cn2c3ccc(F)cc3c3cc(F)ccc32)C1=O (centres undefined)
EC50: 0.424 µM

O=C1CCCCN1CC(O)Cn1c2ccc(F)cc2c2cc(F)ccc21 (centres undefined)
EC50: 0.192 µM

CC(C)N1CCN(CC(O)Cn2c3ccc(F)cc3c3cc(F)ccc32)C1=O (centres undefined)
EC50: 0.605 µM

CC1CCN(CC(O)Cn2c3ccc(F)cc3c3cc(F)ccc32)C(=O)C1 (centres undefined)
EC50: 0.128 µM

CCN1CCN(CC(O)Cn2c3ccc(F)cc3c3cc(F)ccc32)C1=O (centres undefined)
EC50: 1.06 µM

COC1CCC(=O)N(CC(O)Cn2c3ccc(F)cc3c3cc(F)ccc32)C1 (centres undefined)
EC50: 0.397 µM

O=C1COCCN1CC(O)Cn1c2ccc(F)cc2c2cc(F)ccc21 (centres undefined)
EC50: 0.447 µM

COC1CCN(CC(O)Cn2c3ccc(F)cc3c3cc(F)ccc32)C1=O (centres undefined)
EC50: 0.855 µM

CCC1CCN(CC(O)Cn2c3ccc(F)cc3c3cc(F)ccc32)C1=O (centres undefined)
EC50: 0.417 µM
